Data on 79 compounds can be found in the METLIN SMRT retention time set (Domingo-Almenara et al. 2019).

This data set is described as follows: gradient 5% acetonitrile 3 min, to 50% in 2 min, to 85% in 15 min, held 3 min, 100 µL/min. The settings on record: column: Zorbax Extend-C18 2.1 x 50 mm; eluents: water / acetonitrile, 0.1% formic acid. An outline of the steps:
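Mixtures of ~100 pure standards were chromatographed on a Zorbax Extend-C18 column (2.1 × 50 mm, 1.8 μm) at 100 μL/min using water and acetonitrile, each with 0.1% formic acid. Detection used a quadrupole time-of-flight mass spectrometer in positive and negative ionization mode, and data collection spanned 3 months. Retention time was obtained from adduct peaks picked computationally and each checked manually.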
In turn, `N#Cc1ccc(NC(=O)Cn2cccc(-c3nc(-c4ccccc4)no3)c2=O)cc1` registered an RP-LC retention time of 837 s.

Compound `O=C(Nc1ccc2c(c1)OCO2)c1cn(-c2ccc(F)cc2)nn1` came in with an RP-LC retention time of 885 s.

Compound `COc1ccc(-c2cn3ccn(-c4ccc(Cl)cc4)c(=O)c3n2)cc1` showed an RP-LC retention time of 828 s.

`CCC1CN2C=NC(N3CCN(C(=O)Nc4ccc(OC)cc4C)CC3)=CC2=N1` (centres undefined): the RP-LC retention time is 612 s.

Consider `Cn1c(N2CCCC(C(=O)Nc3ccccc3)C2)cc(=O)n(C)c1=O` (centres undefined), for which the RP-LC retention time was 649 s.

As for `CC(NC(=O)c1ccc(-c2ccsc2)nc1)c1ccc(F)cc1` (centres undefined), the RP-LC retention time was determined as 908 s.

`CCOC(=O)Nc1ccc(S(=O)(=O)N2CCC(c3nc4ccccc4[nH]3)CC2)cc1` gave an RP-LC retention time of 582 s.

In turn, `CCN1C(=O)Cc2cc(C(=O)N3CCN(C4CCCCC4)CC3)ccc21` showed an RP-LC retention time of 583 s.

In turn, `Cc1nc(-c2ccc3c(c2)CCN3C(=O)C2CCOC2)cs1` (centres undefined) had an RP-LC retention time of 760 s.

`CC1CN(C(=O)Cn2cc(SCC(=O)NC3CCCCC3)c3ccccc32)CC(C)O1` (centres undefined) had an RP-LC retention time of 879 s.

The compound `N#Cc1cccc(Cn2cc(S(=O)(=O)N3CCCC3)ccc2=O)c1` came in with an RP-LC retention time of 764 s.

Regarding `CC(C)(C)c1ccc(S(=O)(=O)N2CCC(C(=O)NCc3csc(-c4ccccc4)n3)CC2)cc1`, the RP-LC retention time came out at 1130 s.

Turning to `Cn1c(=O)c(=O)n(C)c2cc(Oc3ccccc3)c(NC(=O)C3CCCCC3)cc21`, the RP-LC retention time worked out at 870 s.

For the compound `CCc1ccc(CN2C(=O)CN(S(C)(=O)=O)CC2(C)C(=O)NCc2ccccc2)cc1` (centres undefined), the RP-LC retention time was 868 s.

`COc1ccc(CNC(=O)Cn2c(=O)cc(-c3nc(C)no3)c3ccccc32)cc1OC` came in with an RP-LC retention time of 746 s.

Take `CNC(=O)c1nc(C(C)(C)NC(=O)c2ccco2)nc2c1OCO2`: the RP-LC retention time turned out to be 623 s.

Turning to `CCc1ccc(-c2noc(CN3C(=O)C(C)Oc4ccccc43)n2)cc1` (centres undefined), the RP-LC retention time is 1160 s.

Consider `COC(=O)c1ccsc1NC(=O)CS(=O)(=O)Cc1ccccc1`, for which the RP-LC retention time came out at 823 s.

In the case of `CCn1ccc2sc(C)c(C(=O)NCc3cccc(F)c3)c2c1=O`, the RP-LC retention time came to 822 s.

`O=C(Cc1cccs1)N1CCN(c2nnc3ccc(C(F)(F)F)cn23)CC1` gave an RP-LC retention time of 666 s.

In turn, `Cc1ccc(-c2noc(Cc3nnc(-c4ccccc4)o3)n2)cc1` had an RP-LC retention time of 1040 s.

Take `CC(C)S(=O)(=O)c1ccc(C(=O)Nc2onc3c2CCCC3)cc1`: the RP-LC retention time amounted to 732 s.

In turn, `NC(=O)C1CCN(C(=O)c2ccc(Cn3c(=O)c4cccn4c4cccnc43)cc2)CC1` displayed an RP-LC retention time of 655 s.

As to `COc1cc(-c2nc(-c3ccc4c(c3)oc(=O)n4C(C)C)no2)cc(OC)c1OC`, the RP-LC retention time was 1110 s.

Take `Cc1nn(CC(=O)NCCN2CCN(Cc3ccccc3)CC2)c(=O)c2noc(C)c12`: the RP-LC retention time was 576 s.

`COc1ccc(Cl)cc1NC(=O)CSc1nnc2c3cc(-c4ccc(F)cc4)nn3ccn12` gave an RP-LC retention time of 996 s.

In turn, `O=C(NCc1cccs1)C1CCCN(C(=O)c2cc(-c3ccncc3)n[nH]2)C1` (centres undefined) showed an RP-LC retention time of 574 s.

Regarding `CN(CC1CCOCC1)C(=O)Nc1cc(F)c(F)c(F)c1`, the RP-LC retention time was 804 s.

On to `CC1(C(=O)NC2CCCC2)CN(S(=O)(=O)c2ccccc2)CC(=O)N1c1ccc(Cl)cc1` (centres undefined), for which the RP-LC retention time is 950 s.

As for `CCCS(=O)(=O)N1C[C@@H](COC)[C@H](c2ccncc2)C1`, the RP-LC retention time was determined as 536 s.

In the case of `Cc1nc(-c2cn(C)c3ncccc23)sc1C(=O)NCc1ccc(C(F)(F)F)cc1`, the RP-LC retention time was found to be 981 s.

Compound `O=C(NCCCc1ccccc1)c1nnc(-c2ccc(S(=O)(=O)N3CCCCC3)cc2)o1` gave an RP-LC retention time of 1070 s.

`COc1ccc(C(=O)NCc2ccc(OCCN(C)C)cc2)cc1OC` came in with an RP-LC retention time of 638 s.

As to `Cc1ccc(-c2cc(C(=O)O)c3ccccc3n2)c(C)c1`, the RP-LC retention time is 821 s.

In turn, `COc1ccc(-c2csc(NC(=O)CSc3nc4c(cc3C#N)CCCC4)n2)cc1` showed an RP-LC retention time of 1180 s.

`COc1cc(C(=O)N(C)CCc2noc(C3CCCCC3)n2)cc(OC)c1OC` gave an RP-LC retention time of 814 s.

As to `O=C(NCc1cccc(F)c1)c1cc(N2CCCC2)n2nccc2n1`, the RP-LC retention time was 946 s.

Regarding `CN1C(=O)[C@H]2CN(Cc3ccc(C#N)cc3)C[C@H]2C1=O`, the RP-LC retention time is 574 s.

`CCOc1ccc(CC(=O)N2CC(=O)Nc3ccccc32)cc1`: the RP-LC retention time was found to be 706 s.

Regarding `CCc1cc(-c2csc(S(=O)(=O)Nc3ccc(C(C)C)cc3)c2)on1`, the RP-LC retention time was 1100 s.

Take `CCCn1cc(C(=O)NCc2ccccn2)c2cccnc21`: the RP-LC retention time amounted to 595 s.

In turn, `CCCOc1nc2ccccc2nc1N1CCCC(C(=O)Nc2cc(C)ccc2C)C1` (centres undefined) displayed an RP-LC retention time of 1340 s.

`CCC(C)Nc1nc(-c2ccc(C)cc2)nnc1C` (centres undefined): the RP-LC retention time amounted to 719 s.

The compound `COc1ccc(-c2noc(CN3N=NC4C(=O)N(c5cccc(Cl)c5)C(=O)C43)n2)c(OC)c1` (centres undefined) yielded an RP-LC retention time of 912 s.

For the compound `CN1Cc2ccccc2-n2ccnc2C12CCN(C(=O)c1cccc(C(F)(F)F)c1)CC2`, the RP-LC retention time turned out to be 594 s.

`Cc1cc(=O)n(CC(=O)NCc2ccc(F)cc2)c(N2CCOCC2)n1` returned an RP-LC retention time of 647 s.

The compound `O=C(c1ccc(Br)cc1)N1CCC(n2c(-c3ccco3)nc3cccnc32)C1` (centres undefined) gave an RP-LC retention time of 827 s.

Consider `CCCN1CN=C(Nc2nc(C)c3cccc(OC)c3n2)NC1`, for which the RP-LC retention time is 644 s.

In turn, `Cc1ccc(-c2nnc(Cc3nc(-c4ccc(Cl)cc4)no3)o2)cc1C` returned an RP-LC retention time of 1220 s.

As to `O=C(c1cc(-c2ccco2)on1)N1CCCC(c2nnc(-c3ccccc3F)s2)C1` (centres undefined), the RP-LC retention time came out at 923 s.

For the compound `Cc1ccc(-c2cnn3c(N4CCN(c5ccccn5)CC4)cc(C)nc23)cc1`, the RP-LC retention time came out at 751 s.

As for `O=C(Cn1nc2c3cc(-c4ccc(F)cc4)nn3ccn2c1=O)Nc1ccc(F)cc1Cl`, the RP-LC retention time was 959 s.

Turning to `Cc1nc(N2CCN(Cc3ccc4c(c3)OCO4)CC2)nc2c1C(=O)CC(c1cccs1)C2` (centres undefined), the RP-LC retention time worked out at 753 s.

On to `Cc1nc(-c2csc(S(=O)(=O)N3CCC(C(=O)NC4CCCCCCC4)CC3)c2)no1`, for which the RP-LC retention time was determined as 995 s.

Compound `c1ccc(-c2cc(N3CCN(c4ccccn4)CC3)nn2-c2ccccc2)cc1` came in with an RP-LC retention time of 831 s.

Regarding `O=C(Cc1csc(NC(=O)NC2CCCCC2)n1)NCCc1ccc(Cl)cc1`, the RP-LC retention time worked out at 805 s.

`CCc1cc(C2CCCN2C(=O)Nc2cccc(OC)c2)on1` (centres undefined) came in with an RP-LC retention time of 835 s.

`COc1ccc(-c2nnc(-c3ccc(C)c(S(=O)(=O)N4CCCC4)c3)o2)cc1OC` returned an RP-LC retention time of 937 s.

`CCN(CC)C(=O)[C@@H]1[C@H](c2cc(OC)c(OC)c(OC)c2)c2cc3c(cc2[C@H](O)[C@H]1CO)OCO3` came in with an RP-LC retention time of 679 s.

`CC1CCCCN1Cc1nc(Cn2ccn3nc(-c4ccccc4)cc3c2=O)no1` (centres undefined): the RP-LC retention time was found to be 658 s.

In turn, `Cn1c(=O)n(C)c2cc(CNc3ccc4c(c3)OCO4)ccc21` showed an RP-LC retention time of 630 s.

The compound `Cc1ccn2c(C(C)O)nnc2c1` (centres undefined) had an RP-LC retention time of 574 s.

In the case of `N#Cc1ccc(CN2CCC3(CCC3O)CC2)cc1` (centres undefined), the RP-LC retention time came out at 570 s.

Compound `Cc1cc(N2CCN(C)CC2)nc2ccc(NC(=O)Nc3ccccc3Br)cc12` registered an RP-LC retention time of 609 s.

As for `CCN1CCCn2nc(C3CCN(C(=O)c4ccc5c(c4)OCO5)CC3)cc2C1=O`, the RP-LC retention time turned out to be 628 s.

For `CCCn1cnc2cc(CNC(=O)CCC3CCCC3)ccc21`, the RP-LC retention time was 649 s.

As to `COCCCn1c(=O)c2ccccc2n(Cc2nc(-c3ccc(OC)cc3)no2)c1=O`, the RP-LC retention time is 968 s.

As for `CCc1ccc(N2C(=O)CN(S(C)(=O)=O)CC2(C)C(=O)NCc2ccc(F)cc2)cc1` (centres undefined), the RP-LC retention time came out at 834 s.

`Cc1nc2cccnc2n1CC1CCCN(S(=O)(=O)c2cc(F)ccc2F)C1` (centres undefined) showed an RP-LC retention time of 703 s.

`CN(C)S(=O)(=O)c1ccc(C(=O)Oc2coc(CSc3nccn3C)cc2=O)cc1` had an RP-LC retention time of 566 s.

`O=C(Nc1ccccc1C(F)(F)F)N(CCc1cccs1)C1CC1`: the RP-LC retention time is 1100 s.

Turning to `COc1cccc(CNC(=O)CCNc2cnc3cnccn23)c1`, the RP-LC retention time came out at 585 s.

Regarding `CN(C)c1ccc(CNC(=O)Cc2c[nH]c3ncccc23)cc1`, the RP-LC retention time amounted to 640 s.

`COc1ccc(-c2noc(Cn3ncn4nc(-c5ccc(F)cc5)cc4c3=O)n2)cc1OC` registered an RP-LC retention time of 1000 s.

`O=C(Nc1ccccc1Cl)c1c(O)c2cccnc2n(-c2ccc(F)cc2)c1=O`: the RP-LC retention time was determined as 1270 s.

For `CSc1ccc(-c2nc3cnccn3c2Nc2ccc(C(=O)NC(C)C)cc2)cc1`, the RP-LC retention time stood at 745 s.

In turn, `CC1=C(c2ccc(C(C)C)cc2)S(=O)(=O)N=C1N1CCC(NC(=O)c2ccoc2)CC1` gave an RP-LC retention time of 769 s.

Consider `CCCCNC(=O)C1CCN(c2nc(NC(C)=O)c(C(=O)N3CCCC3)s2)CC1`, for which the RP-LC retention time worked out at 683 s.

In turn, `Cc1[nH]c(C)c(S(=O)(=O)N2CCC(C(=O)NCc3cccs3)CC2)c1C(=O)N1CCCC1` came in with an RP-LC retention time of 664 s.
